# Calls of active or inactive are those of the source. The calls are words filed in the database; no cut-off is given here.
# Key:
# [1] = Cytotoxicity against human HL60 cells assessed as cell viability up to 50 uM after 4 hrs by fluorescence microscopy; type: cell-based; settings: hl-60, 4 h
# HL-60 [2] = assay: Protection against H2O2-induced human HL60 cells assessed as reduction in DNA damage at 10 uM after 30 mins by comet assay; type: functional, cell-based
# HL-60 [3] = assay: Protection against H2O2-induced human HL60 cells assessed as reduction in DNA damage at 2.5 uM after 30 mins by comet assay; type: functional, cell-based
# HL-60 [4] = assay: Protection against H2O2-induced human HL60 cells assessed as reduction in DNA damage at 1.25 uM after 30 mins by comet assay; type: functional, cell-based
# [5] = Cytotoxicity against human HL60 cells assessed as induction of DNA damage at 1.25 to 10 uM after 24 hrs by fluorescence microscopy; type: cell-based; settings: hl-60, 24 h
# [6] = Antioxidant activity assessed as ferric ion reducing activity at 2 nM to 200 uM by FRAP assay; type: physicochemical; settings: 0.002 µM
# [7] = system: Trypanosoma brucei brucei; assay: Antiparasitic activity against Trypanosoma brucei brucei; type: functional, organism-based
# [8] = Cytotoxicity against human HL60 cells assessed as cell viability up to 50 uM after 24 hrs by fluorescence microscopy; type: cell-based; settings: hl-60, 24 h
# HL-60 [9] = assay: Protection against H2O2-induced human HL60 cells assessed as reduction in DNA damage at 50 uM after 30 mins by comet assay; type: functional, cell-based
Activity [6],IC50 [7],SMILES,Activity [1],Activity (HL-60 [2]),Activity (HL-60 [3]),Activity (HL-60 [4]),Activity [5],inhibition [7],Activity [8],Activity (HL-60 [9])
Active,,Cc1cc(O[C@@H]2O[C@@H](C)[C@H](O)[C@@H](O)[C@H]2O)c2c3c(ccc2c1)C(=O)c1c(O[C@@H]2O[C@@H](C)[C@H](O)[C@@H](O)[C@H]2O)cccc1C3=O,Non-toxic,Active,Active,Active,Non-toxic,inactive,Non-toxic,
,,CC1(C)CC(O)CC(C)(C)N1[O],,,,,,,,Active
,15 µM,Cc1cc(O[C@@H]2O[C@@H](C)[C@H](O)[C@@H](O)[C@H]2O)c2c3c(c(O[C@@H]4O[C@@H](C)[C@H](O)[C@@H](O)[C@H]4O)cc2c1)C(=O)c1c(O)cccc1C3=O,,,,,,,,
Active,,Cc1cc(O[C@@H]2O[C@@H](C)[C@H](O)[C@@H](O)[C@H]2O)c2c3c(c(O)cc2c1)C(=O)c1c(O[C@@H]2O[C@@H](C)[C@H](O)[C@@H](O)[C@H]2O)cccc1C3=O,Non-toxic,Active,Active,Active,Non-toxic,inactive,Toxic,
